The results in this text go back to patent US20240238425A1, “HSD17B13 Inhibitors and/or Degraders” (Pfizer Inc., priority 2022, published 2024).

The subject of the assay is HiBiT-HSD17β13 fusion protein (N-terminal HiBiT-tagged HSD17β13 isoform D) in Huh7 HiBiT-HSD17β13 OE cells. Kind of assay: Whole-cell Huh7-HSD17B13 HiBiT assay (degrader potency and maximal efficacy, luminescence readout). In kind it is cell-based, human. The conditions noted are these: 24 hour incubation, geometric mean, * = geometric mean for all forms tested (parent and salt forms); for DC50: read-out: Huh7_HIBIT-HSD17β13_DC50 GMean DC50; for Huh7_HIBIT-HSD17β13_DC50 GMean Asymptote Maximum: max. concentration 1 μM. On the procedure:
Degrader potency and maximal efficacy of test compounds were determined using a whole-cell Huh7-HSD17B13 HiBiT assay, utilizing a luminescence readout. A HiBiT tag was fused to the N-terminus of HSD17β13, and therefore the HiBiT luminescence signal produced in the assay was proportional to the level of HiBiT-HSD17β13 fusion protein in a sample.
A Huh7 HiBiT-HSD17β13 OE cell line was generated using electroporation with an N-terminal HiBiT-tagged HSD17β13 isoform D overexpression plasmid, followed by geneticin selection to produce a stable pool. Clones were created with varying HiBiT signals to optimize HiBiT HSD17 β13 ratios. A clone with similar HSD17β13 expression levels as human primary hepatocytes was selected for the compound screen.
Greiner 384-well white opaque, flat bottom, tissue culture treated plates (Greiner #781080) were used for both HiBiT and CTG assays. The treated plates were spotted with 25 nL of a compound which had been serial diluted 1 in 3.162 in 100% DMSO for an 11-point concentration response curve, with duplicate points at each concentration. The maximum concentration of the compounds was 1 mM, which was later diluted with cell suspension for a maximum concentration of 1 μM). High percentage effect (HPE) wells and zero percentage effect (ZPE) wells located in columns 1 and 24 were spotted with 25 nL of DMSO (Sigma #D2650) using an ECHO Acoustic Liquid Handler (Labcyte Echo 550 Series). Each plate was performed in duplicate.
The Huh7 HiBiT-HSD17β13 OE cells were plated on top of a compound or a DMSO control at 3,000 viable cells/well in 25 μL growth media (DMEM (Gibco #10569), 10% FBS HI (Gibco #16140), 1× Pen/Strep (Gibco #15070), 1×MEM Non-Essential Amino Acids (Gibco #11140), and 300 μg/mL Geneticin (Gibco #10131) in columns 2-24 of the plates. Huh7 parental cells were plated using the same parameters in column 1 (HPE) in the same culture medium, excluding Geneticin selection. Cells were incubated overnight with the compounds for 24 hours (with lid) at 37° C. ([…]).
Each assay was conducted after a 24 hour incubation period. In the HiBiT assay plates, 25 μL of complete Nano-Glo HiBiT Lytic detection system (Promega #PRN3040), consisting of HiBiT Lytic Buffer with the addition of 1:100 LgBiT Protein and 1:50 Substrate, was added to each well. In CTG counter screen plates, 25 μL of Cell Titer-Glo Luminescent Reagent (Promega #G7573) was added to each well. Both plates were centrifuged for 2 minutes at 1000 rpm and incubated at room temperature, in the dark, for 10 minutes. Then Luminescence was read using an EnVision Plate Reader (Perkin Elmer PE2103).
The raw data from the Envision Plate Reader was expressed as relative luminescence units (RLUs) for each well of the assay plates. Using HPE and ZPE controls, the % effect was calculated for each sample well as follows: Percent effect=[(sample RLU−HPE RLU)\(ZPE RLU−HPE RLU)]*100. The percent effect was plotted versus the compound concentration and a 50% degradation ([…]) was determined using a four-parameter logistic dose response equation. The raw data was analyzed using ABase (IDBS).
(In general: With HiBiT, luminescence reflects the tagged protein that the partner subunit can reach.)

For `Cl.Cn1c(=O)n(C2CCC(=O)NC2=O)c2ccc(CCCN3Cc4ccc(-c5ccc6cn(C7CCC(CNC(=O)c8cc(F)c(O)c(F)c8F)CC7)nc6c5)cc4C3)cc21` (racemic) [Example 1, N-{[(1r,4r)-4-{6-[2-(3-{1-[(3RS)-2,6-Dioxopiperidin-3-yl]-3-methyl-2-oxo-2,3-dihydro-1H-benzimidazol-5-yl}propyl)-2,3-dihydro-1H-isoindol-5-yl]-2H-indazol-2-yl}cyclohexyl]methyl}-2,3,5-trifluoro-4-hydroxybenzamide, hydrochloride salt], the DC50 (commonly the midpoint of the concentration-degradation curve) was 0.11 nM and the “Huh7_HIBIT-HSD17β13_DC50 GMean Asymptote Maximum” value is listed as 87* %.

With `Cn1c(=O)n(C2CCC(=O)NC2=O)c2ccc(CCCN3Cc4ccc(-c5ccc6cn(C7CCC(CNC(=O)c8cc(F)c(O)c(F)c8F)CC7)nc6c5)nc4C3)cc21` (racemic) [Example 2, N-{[(1r,4r)-4-{6-[6-(3-{1-[(3RS)-2,6-Dioxopiperidin-3-yl]-3-methyl-2-oxo-2,3-dihydro-1H-benzimidazol-5-yl}propyl)-6,7-dihydro-5H-pyrrolo[3,4-b]pyridin-2-yl]-2H-indazol-2-yl}cyclohexyl]methyl}-2,3,5-trifluoro-4-hydroxybenzamide], the DC50 amounted to 0.16 nM and the “Huh7_HIBIT-HSD17β13_DC50 GMean Asymptote Maximum” value is 83* %.

For the compound `Cl.Cn1c(=O)n(C2CCC(=O)NC2=O)c2ccc(CCCN3CCN(c4nccc(-c5nc(C67CCC(CNC(=O)c8cc(F)c(O)c(F)c8F)(CC6)CC7)no5)n4)CC3)cc21` (racemic) [Example 3, N-{[4-(5-{2-[4-(3-{1-[(3RS)-2,6-Dioxopiperidin-3-yl]-3-methyl-2-oxo-2,3-dihydro-1H-benzimidazol-5-yl}propyl)piperazin-1-yl]pyrimidin-4-yl}-1,2,4-oxadiazol-3-yl)bicyclo[2.2.2]octan-1-yl]methyl}-2,3,5-trifluoro-4-hydroxybenzamide, hydrochloride salt], the DC50 worked out at 0.19 nM and the “Huh7_HIBIT-HSD17β13_DC50 GMean Asymptote Maximum” value is given as 84* %.

On to `Cn1c(=O)n(C2CCC(=O)NC2=O)c2ccc(CCCN3CCN(c4nccc(-c5nc(C67CCC(CNC(=O)c8cc(F)c(O)c(F)c8F)(CC6)CC7)cs5)n4)CC3)cc21.O=CO` (racemic) [Example 4, N-{[4-(2-{2-[4-(3-{1-[(3RS)-2,6-Dioxopiperidin-3-yl]-3-methyl-2-oxo-2,3-dihydro-1H-benzimidazol-5-yl}propyl)piperazin-1-yl]pyrimidin-4-yl}-1,3-thiazol-4-yl)bicyclo[2.2.2]octan-1-yl]methyl}-2,3,5-trifluoro-4-hydroxybenzamide, formate salt], for which the DC50 was 0.38 nM and the “Huh7_HIBIT-HSD17β13_DC50 GMean Asymptote Maximum” value turned out to be 84%.

Turning to `Cn1c(=O)n(C2CCC(=O)NC2=O)c2ccc(CCCN3CCN(c4nccc(-c5csc(C67CCC(CNC(=O)c8cc(F)c(O)c(F)c8F)(CC6)CC7)n5)n4)CC3)cc21` (racemic) [Example 5, N-{[4-(4-{2-[4-(3-{1-[(3RS)-2,6-Dioxopiperidin-3-yl]-3-methyl-2-oxo-2,3-dihydro-1H-benzimidazol-5-yl}propyl)piperazin-1-yl]pyrimidin-4-yl}-1,3-thiazol-2-yl)bicyclo[2.2.2]octan-1-yl]methyl}-2,3,5-trifluoro-4-hydroxybenzamide], the DC50 amounted to 0.31 nM and the “Huh7_HIBIT-HSD17β13_DC50 GMean Asymptote Maximum” value amounted to 82%.

For the compound `O=C1CCC(N2Cc3c(OCc4ccc(CN5CCN(c6ccc7cn(C8CCC(CNC(=O)c9cc(F)c(O)c(F)c9)CC8)nc7c6)CC5)cc4)cccc3C2=O)C(=O)N1` (racemic) [Example 6, N-{[(1r,4r)-4-{6-[4-({4-[({2-[(3RS)-2,6-Dioxopiperidin-3-yl]-1-oxo-2,3-dihydro-1H-isoindol-4-yl}oxy)methyl]phenyl}methyl)piperazin-1-yl]-2H-indazol-2-yl}cyclohexyl]methyl}-3,5-difluoro-4-hydroxybenzamide], the DC50 worked out at 1.4 nM and the “Huh7_HIBIT-HSD17β13_DC50 GMean Asymptote Maximum” value is 76* %.

For the compound `Cl.Cn1c(=O)n(C2CCC(=O)NC2=O)c2ccc(CCN3CCN(c4cnc(-c5ccc6cn(C7CCC(CNC(=O)c8cc(F)c(O)c(F)c8F)CC7)nc6c5)cn4)CC3)cc21` (racemic) [Example 8, N-{[(1r,4r)-4-(6-{5-[4-(2-{1-[(3RS)-2,6-Dioxopiperidin-3-yl]-3-methyl-2-oxo-2,3-dihydro-1H-benzimidazol-5-yl}ethyl)piperazin-1-yl]pyrazin-2-yl}-2H-indazol-2-yl)cyclohexyl]methyl}-2,3,5-trifluoro-4-hydroxybenzamide, hydrochloride salt], the 50% degradation concentration (DC50) amounted to 0.21 nM and the “Huh7_HIBIT-HSD17β13_DC50 GMean Asymptote Maximum” value is recorded as 87* %.

Regarding `Cl.Cn1c(=O)n(C2CCC(=O)NC2=O)c2ccc(CCN3CCN(c4ccc5cn(C6CCC(CNC(=O)c7cc(F)c(O)c(F)c7F)CC6)nc5c4)CC3)cc21` (racemic) [Example 9, N-{[(1r,4r)-4-{6-[4-(2-{1-[(3RS)-2,6-Dioxopiperidin-3-yl]-3-methyl-2-oxo-2,3-dihydro-1H-benzimidazol-5-yl}ethyl)piperazin-1-yl]-2H-indazol-2-yl}cyclohexyl]methyl}-2,3,5-trifluoro-4-hydroxybenzamide, hydrochloride salt], the DC50 is 0.26 nM and the “Huh7_HIBIT-HSD17β13_DC50 GMean Asymptote Maximum” value is 83* %.

With `Cn1c(=O)n(C2CCC(=O)NC2=O)c2ccc(CCCN3CCN(c4ncc(-c5ccn6cc(C78CCC(CNC(=O)c9cc(F)c(O)c(F)c9F)(CC7)CC8)nc6c5)cn4)CC3)cc21.O=C(O)C(F)(F)F` (racemic) [Example 12, N-{[4-(7-{2-[4-(3-{1-[(3RS)-2,6-Dioxopiperidin-3-yl]-3-methyl-2-oxo-2,3-dihydro-1H-benzimidazol-5-yl}propyl)piperazin-1-yl]pyrimidin-5-yl}imidazo[1,2-a]pyridin-2-yl)bicyclo[2.2.2]octan-1-yl]methyl}-2,3,5-trifluoro-4-hydroxybenzamide, trifluoroacetate salt], the DC50 was determined as 0.14 nM and the “Huh7_HIBIT-HSD17β13_DC50 GMean Asymptote Maximum” value was 84%.

For `Cn1c(=O)n(C2CCC(=O)NC2=O)c2ccc(CCCN3CCOC4(C3)CN(c3ncc(-c5ccc6cn(C7CCC(CNC(=O)c8cc(F)c(O)c(F)c8F)CC7)nc6c5)cn3)C4)cc21.O=C(O)C(F)(F)F` (racemic) [Example 13, N-{[(1r,4r)-4-(6-{2-[8-(3-{1-[(3RS)-2,6-Dioxopiperidin-3-yl]-3-methyl-2-oxo-2,3-dihydro-1H-benzimidazol-5-yl}propyl)-5-oxa-2,8-diazaspiro[3.5]nonan-2-yl]pyrimidin-5-yl}-2H-indazol-2-yl)cyclohexyl]methyl}-2,3,5-trifluoro-4-hydroxybenzamide, trifluoroacetate salt], the DC50 amounted to 0.14 nM and the “Huh7_HIBIT-HSD17β13_DC50 GMean Asymptote Maximum” value was found to be 81%.

Take `Cn1c(=O)n(C2CCC(=O)NC2=O)c2ccc(CCN3CCN(c4cncc(-c5ccc6cn(C7CCC(CNC(=O)c8cc(F)c(O)c(F)c8F)CC7)nc6c5)n4)CC3)cc21.O=C(O)C(F)(F)F` (racemic) [Example 14, N-{[(1r,4r)-4-(6-{6-[4-(2-{1-[(3RS)-2,6-Dioxopiperidin-3-yl]-3-methyl-2-oxo-2,3-dihydro-1H-benzimidazol-5-yl}ethyl)piperazin-1-yl]pyrazin-2-yl}-2H-indazol-2-yl)cyclohexyl]methyl}-2,3,5-trifluoro-4-hydroxybenzamide, trifluoroacetate salt]: the DC50 was 0.23 nM and the “Huh7_HIBIT-HSD17β13_DC50 GMean Asymptote Maximum” value was 85%.
